In patent US5552411A, “Sulfonylquinolines as central nervous system and cardiovascular agents” (Warner-Lambert Company, priority 1995, dated 1996):

target: T1, Human Neuropeptide Y1 Receptors (Homo sapiens, UniProt P25929); assay: Receptor binding: inhibition of [^125 I]Peptide YY binding to human neuropeptide Y1 receptors (SK-N-MC membranes); conditions: not given
T1 construct: 50 μL SK-N-MC preparation containing 50 μg/tube membrane protein; host or cells: SK-N-MC human neuroblastoma cells (membranes)
T1 sequence (P25929 1-384): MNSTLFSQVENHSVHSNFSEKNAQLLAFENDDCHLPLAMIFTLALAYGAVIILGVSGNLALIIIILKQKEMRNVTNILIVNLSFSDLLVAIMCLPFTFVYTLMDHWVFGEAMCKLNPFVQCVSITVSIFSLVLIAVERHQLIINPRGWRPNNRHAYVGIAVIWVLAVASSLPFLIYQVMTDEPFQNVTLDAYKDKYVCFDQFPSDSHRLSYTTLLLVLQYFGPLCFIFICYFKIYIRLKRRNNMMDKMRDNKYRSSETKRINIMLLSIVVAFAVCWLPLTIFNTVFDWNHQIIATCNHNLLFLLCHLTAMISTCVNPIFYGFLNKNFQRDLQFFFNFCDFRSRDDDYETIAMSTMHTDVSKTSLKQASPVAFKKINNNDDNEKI
Experimental: The compounds of Formula I are valuable neuropeptide Y1 antagonists. The compounds of Formula I were tested for their ability to bind to the neuropeptide Y1 receptor subtype as measured by their inhibition of [^125 I]Peptide YY to human NPY1 receptors.
Human neuroblastoma cells, SK-N-MC, obtained from American Type Culture Collection were grown in Dulbecco's modified Eagle medium (Gibco) containing 10% fetal bovine serum and 100 units per mL/100 μg/mL penicillin/streptomycin (Gibco). After cells were confluent, growth media was replaced with fresh media and cells were allowed to continue growing for an additional 24 hours. Cells were then harvested in a buffer consisting of the following: 25 mM Tris(hydroxymethyl)amino methane (Tris), pH 7.4, 6 mM MgCl2, 250 μg/mL bacitracin, 250 μg/mL aprotinin, 250 μg/mL leupeptin, 250 μg/mL 4-(2-aminoethyl)-benzenesulfonylfluoride hydrochloride (Peflabloc) (Pentapharm AG). Growth media was removed and cells were lifted from the flasks with Dulbecco's phosphate buffered saline (D-PBS) containing 0.02% ethylenediaminetetraacetic acid (EDTA). Cells were pelleted and homogenized using a polytron, and broken membranes were pelleted by centrifugation at 18,000 rpm for 10 minutes at 4° C. The pelleted membranes were resuspended in the above buffer and frozen at […].
D-PBS (Gibco) pH 7.4, containing 0.5 g/L bacitracin and […] bovine serum albumin (BSA), was used in the preparation of compound and radiolabel. Each assay tube consisted of the following: […] of compound or buffer, 100 μL[^125 I]-PYY (Peptide YY) (30 pM), and 50 μL SK-N-MC preparation containing 50 μg/tube membrane protein for a total volume of 250 μL/tube. Non-specific binding was defined by the addition of 300 nM final concentration of neuropeptide Y. After addition of all reagents, tubes were shaken while incubating for 60 minutes at room temperature. The assay was terminated by filtering through a Whatman GF/C filter previously saturated with 0.1% polyethylenimine in 10 mM Tris, pH 7.5 containing 0.1% BSA. Filters were punched from the filter mat, placed in tubes, and counted for 1 minute using a gamma counter. The Ki was determined using the Graph PAD data analysis software program.

Row | Compound | Ki
1 | Nc1cc(S(=O)(=O)c2ccc([N+](=O)[O-])cc2)c([N+](=O)[O-])c2cccnc12 [Example 8, 5-Nitro-6-(4-nitro-benzenesulfonyl)-quinolin-8-ylamine] | 1000 nM

same assay, conditions: 30 pM [^125 I]-PYY, SK-N-MC membranes, 60 minutes, room temperature, pH 7.4; read-out: Inhibition of [^125 I]Peptide YY Binding to Human Neuropeptide Y1 Receptors Ki

Row | Compound | Ki
2 | Nc1cc(S(=O)(=O)c2cccc(Cl)c2)c([N+](=O)[O-])c2cccnc12 [Example 15, 6-(3-Chloro-benzenesulfonyl)-5-nitro-quinolin-8-ylamine] | 892 nM
3 | CC(C)(C)c1ccc(S(=O)(=O)c2cc(N)c3ncccc3c2[N+](=O)[O-])cc1 [Example 7, 6-(4-tert-Butyl-benzenesulfonyl)-5-nitro-quinolin-8-ylamine] | 3200 nM
4 | Nc1cc(S(=O)(=O)c2cc(Cl)ccc2Cl)c([N+](=O)[O-])c2cccnc12 [Example 30, 6-(2,5-Dichloro-benzenesulfonyl)-5-nitro-quinolin-8-ylamine] | 283 nM
5 | Nc1cc(S(=O)(=O)c2cccc(Cl)c2Cl)c([N+](=O)[O-])c2cccnc12 [Example 26, 6-(2,3-Dichloro-benzenesulfonyl)-5-nitro-quinolin-8-ylamine] | 93 nM
6 | CC(=O)Nc1ccccc1S(=O)(=O)c1cc(N)c2ncccc2c1[N+](=O)[O-] [Example 25, N-[2-(8-Amino-5-nitro-quinoline-6-sulfonyl)-phenyl]-acetamide] | 590 nM
7 | Nc1cc(S(=O)(=O)c2ccc(O)cc2)c([N+](=O)[O-])c2cccnc12 [Example 10, 4-(8-Amino-5-nitro-quinoline-6-sulfonyl)-phenol] | 136 nM
8 | Nc1cc(S(=O)(=O)c2ccccc2F)c([N+](=O)[O-])c2cccnc12 [Example 27, 6-(2-Fluoro-benzenesulfonyl)-5-nitro-quinolin-8-ylamine] | 58 nM
9 | Cc1ccc(C)c(S(=O)(=O)c2cc(N)c3ncccc3c2[N+](=O)[O-])c1 [Example 6, 6-(2,5-Dimethyl-benzenesulfonyl)-5-nitro-quinolin-8-ylamine] | 148 nM
10 | Cc1cccc(C)c1S(=O)(=O)c1cc(N)c2ncccc2c1[N+](=O)[O-] [Example 14, 6-(2,6-Dimethyl-benzenesulfonyl)-5-nitro-quinolin-8-ylamine] | 295 nM
11 | Cc1ccc(S(=O)(=O)c2cc(N)c3ncccc3c2[N+](=O)[O-])c(C)c1 [Example 22, 6-(2,4-Dimethyl-benzenesulfonyl)-5-nitro-quinolin-8-ylamine] | 222 nM
12 | N#Cc1ccc(S(=O)(=O)c2cc(N)c3ncccc3c2[N+](=O)[O-])cc1 [Example 11, 4-(8-Amino-5-nitro-quinoline-6-sulfonyl)-benzonitrile] | 854 nM
13 | CC(C)c1ccccc1S(=O)(=O)c1cc(N)c2ncccc2c1[N+](=O)[O-] [Example 19, 6-(2-Isopropyl-benzenesulfonyl)-5-nitro-quinolin-8-ylamine] | 48 nM
14 | Nc1cc(S(=O)(=O)c2ccc3ccccc3c2)c([N+](=O)[O-])c2cccnc12 [Example 5, 6-(Naphthalene-2-sulfonyl)-5-nitro-quinolin-8-ylamine] | 1200 nM
15 | COc1ccccc1S(=O)(=O)c1cc(N)c2ncccc2c1[N+](=O)[O-] [Example 21, 6-(2-Methoxy-benzenesulfonyl)-5-nitro-quinolin-8-ylamine] | 490 nM
16 | Nc1cc(S(=O)(=O)c2c(Cl)cccc2Cl)c([N+](=O)[O-])c2cccnc12 [Example 23, 6-(2,6-Dichloro-benzenesulfonyl)-5-nitro-quinolin-8-ylamine] | 273 nM
17 | Nc1cc(S(=O)(=O)c2cccc3ccccc23)c([N+](=O)[O-])c2cccnc12 [Example 20, 6-(Naphthalene-1-sulfonyl)-5-nitro-quinolin-8-ylamine] | 46 nM
18 | COc1cccc(S(=O)(=O)c2cc(N)c3ncccc3c2[N+](=O)[O-])c1 [Example 17, 6-(3-Methoxy-benzenesulfonyl)-5-nitro-quinolin-8-ylamine] | 311 nM

Second part, the compound after the results:

Row | Ki | Compound
19 | 93 nM | Nc1cc(S(=O)(=O)c2ccccc2Cl)c([N+](=O)[O-])c2cccnc12 [Example 13, 6-(2-Chloro-benzenesulfonyl)-5-nitro-quinolin-8-ylamine]
20 | 119 nM | Cc1ccccc1S(=O)(=O)c1cc(N)c2ncccc2c1[N+](=O)[O-] [Example 12, 5-Nitro-6-(toluene-2-sulfonyl)-quinolin-8-ylamine]
21 | 1400 nM | CC(C)(C)c1ccccc1S(=O)(=O)c1cc(N)c2ncccc2c1[N+](=O)[O-] [Example 31, 6-(2-tert-Butyl-benzenesulfonyl)-5-nitro-quinolin-8-ylamine]
22 | 84 nM | Nc1cc(S(=O)(=O)c2ccccc2C(F)(F)F)c([N+](=O)[O-])c2cccnc12 [Example 29, 5-Nitro-6-(2-trifluoromethyl-benzenesulfonyl)-quinolin-8-ylamine]
23 | 373 nM | Cc1cccc(S(=O)(=O)c2cc(N)c3ncccc3c2[N+](=O)[O-])c1 [Example 9, 5-Nitro-6-(toluene-3-sulfonyl)-quinolin-8-ylamine]
24 | 48 nM | CC(C)c1cccc(C(C)C)c1S(=O)(=O)c1cc(N)c2ncccc2c1[N+](=O)[O-] [Example 28, 6-(2,6-Diisopropyl-benzenesulfonyl)-5-nitro-quinolin-8-ylamine]
25 | 1140 nM | COc1ccc(S(=O)(=O)c2cc(N)c3ncccc3c2[N+](=O)[O-])cc1 [Example 3, 6-(4-Methoxy-benzenesulfonyl)-5-nitro-quinolin-8-ylamine]
26 | 594 nM | Cc1ccc(S(=O)(=O)c2cc(N)c3ncccc3c2[N+](=O)[O-])cc1 [Example 4, 5-Nitro-6-(toluene-4-sulfonyl)-quinolin-8-ylamine]
27 | 297 nM | Nc1cc(S(=O)(=O)c2ccccc2)c([N+](=O)[O-])c2cccnc12 [Example 1, 6-Benzenesulfonyl-5-nitro-quinolin-8-ylamine]
28 | 234 nM | Nc1cc(S(=O)(=O)c2ccccc2Br)c([N+](=O)[O-])c2cccnc12 [Example 24, 6-(2-Bromo-benzenesulfonyl)-5-nitro-quinolin-8-ylamine]
29 | 129 nM | CCc1ccccc1S(=O)(=O)c1cc(N)c2ncccc2c1[N+](=O)[O-] [Example 18, 6-(2-Ethyl-benzenesulfonyl)-5-nitro-quinolin-8-ylamine]
30 | 603 nM | Nc1cc(S(=O)(=O)c2ccc(F)cc2)c([N+](=O)[O-])c2cccnc12 [Example 16, 6-(4-Fluoro-benzenesulfonyl)-5-nitro-quinolin-8-ylamine]
31 | 1750 nM | Nc1cc(S(=O)(=O)c2ccc(Cl)cc2)c([N+](=O)[O-])c2cccnc12 [Example 2, 6-(4-Chloro-benzenesulfonyl)-5-nitro-quinolin-8-ylamine]

tested on: rats; assay: not given; conditions: administration into the central nervous system; cited from earlier work

Row | Compound | effect on feeding
32 | NPY: Neuropeptide Y (NPY), involved in the control of feeding in mammals; agonist in the cAMP assay | dramatic increase in feeding
